What was measured:
[1] = target: T1, xCT (SLC7A11), system xc− (Mus musculus, UniProt Q9WTR6); experiment: inhibition of L-[…]cystine uptake in xCT-overexpressing MEF; format: cell-based
T1 construct: coding region of murine xCT, stably overexpressed in MEF; with 4F2 heavy chain (SLC3A2)
T1 sequence (Q9WTR6 1-502): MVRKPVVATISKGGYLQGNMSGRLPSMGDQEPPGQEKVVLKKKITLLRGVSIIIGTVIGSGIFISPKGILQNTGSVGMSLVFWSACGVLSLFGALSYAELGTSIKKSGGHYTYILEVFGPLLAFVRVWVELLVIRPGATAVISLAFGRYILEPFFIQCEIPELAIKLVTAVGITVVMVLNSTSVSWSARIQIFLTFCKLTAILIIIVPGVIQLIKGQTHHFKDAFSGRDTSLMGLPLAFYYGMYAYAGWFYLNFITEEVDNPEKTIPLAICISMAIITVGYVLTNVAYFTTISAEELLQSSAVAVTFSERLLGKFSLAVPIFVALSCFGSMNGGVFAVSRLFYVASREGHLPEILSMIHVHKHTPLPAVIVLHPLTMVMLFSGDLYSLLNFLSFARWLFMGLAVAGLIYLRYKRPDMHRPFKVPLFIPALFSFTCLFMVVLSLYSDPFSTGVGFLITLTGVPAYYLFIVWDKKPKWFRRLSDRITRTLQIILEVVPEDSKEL
T1 sequence (P10852 1-526 partner): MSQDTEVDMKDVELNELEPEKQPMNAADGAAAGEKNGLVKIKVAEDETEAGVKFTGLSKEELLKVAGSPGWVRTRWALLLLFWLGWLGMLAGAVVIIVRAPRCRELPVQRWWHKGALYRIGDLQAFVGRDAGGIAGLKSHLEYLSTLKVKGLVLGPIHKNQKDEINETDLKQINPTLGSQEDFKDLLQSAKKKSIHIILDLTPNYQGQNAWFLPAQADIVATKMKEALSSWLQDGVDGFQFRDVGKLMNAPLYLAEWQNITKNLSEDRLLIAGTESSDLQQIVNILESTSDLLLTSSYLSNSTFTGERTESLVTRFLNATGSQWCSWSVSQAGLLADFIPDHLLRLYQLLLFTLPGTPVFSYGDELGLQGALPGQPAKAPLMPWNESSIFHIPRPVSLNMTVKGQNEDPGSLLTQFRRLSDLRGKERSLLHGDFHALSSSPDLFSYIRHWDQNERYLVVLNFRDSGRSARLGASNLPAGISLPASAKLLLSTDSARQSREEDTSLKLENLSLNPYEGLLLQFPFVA

[2] = target: T1, xCT (SLC7A11), system xc−; experiment: as above; format: cell-based; remark: listed apart in the source

Row | Compound | IC50 [1] | inhibition at 100 µM [2]
1 | O=C(O)c1cc(/N=N/c2ccc(S(=O)(=O)Nc3ccccn3)cc2)ccc1O [SAS, sulfasalazine] | 26.1 µM | 
2 | N[C@@H](Cn1oc(=O)[nH]c1=O)C(=O)O [QA, quisqualic acid] | 15.4 µM | 
3 | N[C@@H](CCC(=O)O)C(=O)O [Glu, L-glutamate] |  | ~50%
4 | CCOc1ccccc1-n1c(C(C)N2CCN(C(=O)COc3ccc(Cl)cc3)CC2)nc2ccccc2c1=O (stereo not shown) [erastin] | 1.4 µM | 

Reference: article PMC5772355 (Scientific Reports, 2018)
